Data taken from ChEMBL document CHEMBL5532732, “Structure-Based Rational Design of Constrained Peptides as TIM-3 Inhibitors” (ACS Med Chem Lett, 2024).
Activity calls are given as the source filed them. The rule behind the calls is not given here. Peptide text beside a SMILES is read from it.

Legend:
PBMC = experiment: Induction of cytokine production in human PBMC cells assessed as increase in IFN-gamma level at 1 uM in the presence of TIM3 stimulation by ELISA method; format: functional, cell-based
[1] = Stability in human plasma assessed as compound remaining incubated for 2 hrs; format: ADME, cell-free; details: read-out: Stability
[2] = Distribution coefficient, log D of the compound at pH 7.4 by shake flask method; format: physicochemical; details: octanol/water
[3] = Apparent permeability across apical to basolateral in human Caco-2 cells; format: ADME, cell-based
[4] = Apparent permeability across basolateral to apical in human Caco-2 cells; format: ADME, cell-based
[5] = Stability in rat liver microsomes assessed as half life; format: ADME, Microsome
[6] = Stability in simulated gastric fluids at pH 1.6 assessed as half life; format: ADME; details: simulated gastric fluid
[7] = Stability in simulated Intestinal fluids at pH 6.5 assessed as half life; format: ADME; details: simulated intestinal fluid
Kasumi 1 = experiment: Antiproliferative activity against human Kasumi 1 cells at 1 uM; format: functional, cell-based
Homo sapiens = species on record: Homo sapiens; details: dose 250.0 nM
Description: Inhibition of recombinant human Gal-9 to biotinylated recombinant human TIM3 protein-protein interaction at 250 nM by ELISA method

Question: With `CC[C@H](C)[C@@H]1NC(=O)[C@H](Cc2ccc(O)cc2)NC(=O)[C@H](CS)NC(=O)[C@H](CO)NC(=O)[C@H](Cc2ccccc2)NC(=O)CNC(=O)[C@H](CO)NC(=O)[C@H](CO)NC(=O)[C@H](CO)NC(=O)[C@H](CS)NC(=O)[C@H](Cc2ccc(O)cc2)NC(=O)[C@H](CO)NC1=O` (cyclo(CSSSGFSCYISY)) as the compound, how does the Activity (PBMC) read?
Answer: Active

Question: And the remaining at 2 h [1]?
Answer: 95.4%

Question: And the logD [2]?
Answer: 3.52

Question: And the Papp A→B [3]?
Answer: 8.16 ×10⁻⁶ cm/s

Question: What about the Papp B→A [4] of the same compound?
Answer: 12.5 ×10⁻⁶ cm/s

Question: What about the half-life [5] of the same compound?
Answer: 12.4 h

Question: And the half-life [6]?
Answer: 8.7 h

Question: What about the half-life [7] of the same compound?
Answer: 16.4 h

Question: What about the Activity (Kasumi 1) of the same compound?
Answer: inactive

Question: What about the inhibition (Homo sapiens) of the same compound?
Answer: Active
